Assay results: patent US20240398828A1, “HETERO-ATOM CONTAINING COMPOUNDS AND USES THEREOF” (Kumquat Biosciences Inc., priority 2021, published 2024)

Legend:
PTPN2 (i.e., TC-PTP) = molecular target: T1, PTPN2 (i.e., TC-PTP) (Homo sapiens, UniProt P17706); test: Phosphatase activity assay (DiFMUP substrate), PTPN2; assay type: biochemical; conditions: compounds binned ≤1 uM or >1 uM
T1 sequence (P17706 1-415): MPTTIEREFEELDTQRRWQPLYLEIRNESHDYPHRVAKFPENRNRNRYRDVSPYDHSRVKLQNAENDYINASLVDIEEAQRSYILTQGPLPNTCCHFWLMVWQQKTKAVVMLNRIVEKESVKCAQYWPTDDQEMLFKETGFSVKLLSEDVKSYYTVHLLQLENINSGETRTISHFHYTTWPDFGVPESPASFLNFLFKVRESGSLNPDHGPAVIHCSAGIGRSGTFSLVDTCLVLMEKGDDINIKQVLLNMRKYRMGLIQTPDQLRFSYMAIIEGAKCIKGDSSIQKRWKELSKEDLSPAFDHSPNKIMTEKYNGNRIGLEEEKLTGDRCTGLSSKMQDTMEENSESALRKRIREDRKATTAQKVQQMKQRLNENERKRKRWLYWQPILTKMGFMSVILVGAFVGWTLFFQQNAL
Procedure: (§1) The selectivity and potency of a small molecule PTPN2 inhibitor as provided herein against one or more protein tyrosine phosphatase (PTP) enzymes, and specifically against PTPN2, is assessed in various ways. The one or more PTP enzymes comprise Mycobacterium protein tyrosine phosphatase A (mPTPA), Mycobacterium protein tyrosine phosphatase B (mPTPB), PTPN1 (i.e., PTP1B), PTPN2 (i.e., TC-PTP), PTPN22 (i.e., LYP), SHP-1, SHP-2, FAP-1, Meg2, HePTP, Laforin, VHX, VHR, LMWPTP, Cdc14A, LAR, CD45, PTPRG, a fragment thereof, a variant thereof, and a combination thereof. Selectivity and potency of a small molecule PTPN2 inhibitor is evaluated using a PTP activity inhibition assay. The assay is performed using a buffer comprising 50 mM HEPES buffer pH 7.5, 150 mM NaCl, 0.5 mM EDTA, 1 mM DTT, 0.001% Tween-20.
(§2) The assay is performed using a phosphated substrate, e.g., 10 mM 6,8-Difluoro-4-Methylumbelliferyl Phosphate (DIFMUP) that is stored at −20° C. Alternatively or in addition to, the assay is performed using other phosphated substrate (e.g., fluorescein diphosphate). Each PTP enzyme is diluted in the assay buffer
(§3) The assay can be carried out at room temperature in multiplate format, e.g., using 384 well plates. A small molecule PTPN2 inhibitor dissolved in DMSO at one of 10 concentrations from a serial dilution or DMSO alone for control is added to each well. A mixture of the assay buffer comprising PTP enzyme (e.g., 0.025 ng/ul PTPN2) is added to each well and mixed for approximately 2 minutes. The reaction is initiated by adding DiFMUP diluted in the assay buffer to a final concentration of approximately 45 μM DiFMUP in PTPN2 assay. For each PTP enzyme, DiFMUP is added at the Km (Michaelis constant) of the enzyme that had been independently determined. The phosphatase activity of the PTP enzyme is assessed by monitoring appearance of a fluorescent product (6,8-difluoro-7-hydroxyl-4-coumarin (DiFMU) from DiFMUP) continuously for about 15 to 30 minutes, using the INFINITE M1000Pro plate reader (Tecan) with excitation at 360 nm and emission at 450 nm (cutoff filter at 435 nm) for DiFMU. Each assay is performed at least in duplicate. The rate (e.g., the initial rate) of DiFMU formation is plotted against the concentration of the small molecule PTPN2 inhibitor, and the data is fitted (e.g., using a 4-parameter equation) to determine the inflection point of the fit as the IC50 of the small molecule PTPN2 inhibitor for a specific enzyme. Utilizing this assay, the ability of the compounds in Table 2 to inhibit PTPN2 and PTP1B has been assessed. Table 3 summarizes the IC50 values.

PTPN1 (i.e., PTP1B) = molecular target: T2, PTPN1 (i.e., PTP1B) (Homo sapiens, UniProt P18031); test: Phosphatase activity assay (DiFMUP substrate), PTP1B; assay type: biochemical; conditions: compounds binned ≤1 uM or >1 uM
T2 sequence (P18031 1-435): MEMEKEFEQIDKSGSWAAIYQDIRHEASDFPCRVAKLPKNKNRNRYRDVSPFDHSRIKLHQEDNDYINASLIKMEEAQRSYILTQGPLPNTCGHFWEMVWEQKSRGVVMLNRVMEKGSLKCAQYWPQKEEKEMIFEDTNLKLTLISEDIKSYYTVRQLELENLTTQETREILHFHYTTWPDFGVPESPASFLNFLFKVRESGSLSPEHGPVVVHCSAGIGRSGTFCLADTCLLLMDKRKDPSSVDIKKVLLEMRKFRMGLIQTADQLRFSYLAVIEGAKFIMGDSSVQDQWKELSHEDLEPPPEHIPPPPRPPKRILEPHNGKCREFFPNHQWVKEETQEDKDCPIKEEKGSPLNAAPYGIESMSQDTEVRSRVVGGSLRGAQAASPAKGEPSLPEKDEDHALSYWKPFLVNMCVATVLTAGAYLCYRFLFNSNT
Procedure: as §1, §2, §3

SMILES	IC50 (PTPN2 (i.e., TC-PTP)) [nM]	IC50 (PTPN1 (i.e., PTP1B)) [nM]
COc1ccc(-c2cnc(O)nc2)c(F)c1N1CC(=O)NS1(=O)=O [Compound 105, 5-(2-fluoro-3-(2-hydroxypyrimidin-5-yl)-6-methoxyphenyl)-1,2,5-thiadiazolidin-3-one 1,1-dioxide]	> 1000	> 1000
N#Cc1cc(F)cc(-n2cnc(-c3ccc(O)c(N4CC(=O)NS4(=O)=O)c3F)c2)c1 [Compound 433, 3-(4-(3-(1,1-dioxido-4-oxo-1,2,5-thiadiazolidin-2-yl)-2-fluoro-4-hydroxyphenyl)-1H-imidazol-1-yl)-5-fluorobenzonitrile]	≤ 1000	≤ 1000
O=C1CN(c2c(O)ccc(-c3cn(-c4cccc(C(F)(F)F)c4)cn3)c2F)S(=O)(=O)N1 [Compound 325, 5-(2-fluoro-6-hydroxy-3-(1-(3-(trifluoromethyl)phenyl)-1H-imidazol-4-yl)phenyl)-1,2,5-thiadiazolidin-3-one 1,1-dioxide]	≤ 1000	≤ 1000
CC(C)CCCc1cc(-c2ccc(O)c(N3CC(=O)NS3(=O)=O)c2F)[nH]n1 [Compound 290, 5-(2-fluoro-6-hydroxy-3-(3-(4-methylpentyl)-1H-pyrazol-5-yl)phenyl)-1,2,5-thiadiazolidin-3-one 1,1-dioxide]	≤ 1000	≤ 1000
O=C1CN(c2c(O)ccc(-c3cc(N4CC(c5ccccc5)C4)n[nH]3)c2F)S(=O)(=O)N1 [Compound 356, 5-(2-fluoro-6-hydroxy-3-(3-(3-phenylazetidin-1-yl)-1H-pyrazol-5-yl)phenyl)-1,2,5-thiadiazolidin-3-one 1,1-dioxide]	≤ 1000	≤ 1000
Cc1c(-c2cnn(CCC(C)C)c2)ccc(O)c1N1CC(=O)NS1(=O)=O [Compound 119, 5-(6-hydroxy-3-(1-isopentyl-1H-pyrazol-4-yl)-2-methylphenyl)-1,2,5-thiadiazolidin-3-one 1,1-dioxide]	≤ 1000	≤ 1000
O=C1CN(c2c(O)ccc(C3=CCN(S(=O)(=O)c4ccccc4)C3)c2F)S(=O)(=O)N1 [Compound 404, 5-(2-fluoro-6-hydroxy-3-(1-(phenylsulfonyl)-2,5-dihydro-1H-pyrrol-3-yl)phenyl)-1,2,5-thiadiazolidin-3-one 1,1-dioxide]	≤ 1000	≤ 1000
O=C1CN(c2c(O)ccc(-c3cc(CCCC(F)(F)F)n[nH]3)c2F)S(=O)(=O)N1 [Compound 255, 5-(2-fluoro-6-hydroxy-3-(3-(4,4,4-trifluorobutyl)-1H-pyrazol-5-yl)phenyl)-1,2,5-thiadiazolidin-3-one 1,1-dioxide]	≤ 1000	≤ 1000
O=C1CN(c2c(O)ccc(-c3cc(C#Cc4cccnc4)n[nH]3)c2F)S(=O)(=O)N1 [Compound 434, 5-(2-fluoro-6-hydroxy-3-(3-(pyridin-3-ylethynyl)-1H-pyrazol-5-yl)phenyl)-1,2,5-thiadiazolidin-3-one 1,1-dioxide]	≤ 1000	≤ 1000

Now from value to compound:

IC50 (PTPN2 (i.e., TC-PTP)) [nM]	IC50 (PTPN1 (i.e., PTP1B)) [nM]	SMILES
≤ 1000	≤ 1000	O=C1CN(c2c(O)ccc(-c3cc(CC(F)F)n[nH]3)c2F)S(=O)(=O)N1 [Compound 524, 5-(3-(3-(2,2-difluoroethyl)-1H-pyrazol-5-yl)-2-fluoro-6-hydroxyphenyl)-1,2,5-thiadiazolidin-3-one 1,1-dioxide]
≤ 1000	≤ 1000	O=C1CN(c2c(O)ccc(-c3cn(-c4cccc(F)c4)cn3)c2F)S(=O)(=O)N1 [Compound 181, 5-(2-fluoro-3-(1-(3-fluorophenyl)-1H-imidazol-4-yl)-6-hydroxyphenyl)-1,2,5-thiadiazolidin-3-one 1,1-dioxide]
≤ 1000	≤ 1000	COc1ccc(-c2ccc(O)c(N3CC(=O)NS3(=O)=O)c2F)cn1 [Compound 213, 5-(2-fluoro-6-hydroxy-3-(6-methoxypyridin-3-yl)phenyl)-1,2,5-thiadiazolidin-3-one 1,1-dioxide]
≤ 1000	≤ 1000	O=C1CN(c2c(O)ccc(-c3cn(C4CCC4)cn3)c2F)S(=O)(=O)N1 [Compound 241, 5-(3-(1-cyclobutyl-1H-imidazol-4-yl)-2-fluoro-6-hydroxyphenyl)-1,2,5-thiadiazolidin-3-one 1,1-dioxide]
≤ 1000	≤ 1000	COC(=O)C1C=C(c2ccc(O)c(N3CC(=O)NS3(=O)=O)c2F)CN1 (stereo not drawn) [Compound 399, methyl 4-(3-(1,1-dioxido-4-oxo-1,2,5-thiadiazolidin-2-yl)-2-fluoro-4-hydroxyphenyl)-2,5-dihydro-1H-pyrrole-2-carboxylate]
≤ 1000	≤ 1000	O=C1CN(c2c(O)ccc(-c3cn(CC4CCCCC4)nc3F)c2F)S(=O)(=O)N1 [Compound 385, 5-(3-(1-(cyclohexylmethyl)-3-fluoro-1H-pyrazol-4-yl)-2-fluoro-6-hydroxyphenyl)-1,2,5-thiadiazolidin-3-one 1,1-dioxide]
≤ 1000	≤ 1000	O=C1CN(c2c(O)ccc(-c3ccc(N4CCCC4)nc3)c2F)S(=O)(=O)N1 [Compound 177, 5-(2-fluoro-6-hydroxy-3-(6-(pyrrolidin-1-yl)pyridin-3-yl)phenyl)-1,2,5-thiadiazolidin-3-one 1,1-dioxide]
≤ 1000	≤ 1000	O=C1CN(c2c(O)ccc(C3=CCCNC3)c2F)S(=O)(=O)N1 [Compound 511, 5-(2-fluoro-6-hydroxy-3-(1,2,5,6-tetrahydropyridin-3-yl)phenyl)-1,2,5-thiadiazolidin-3-one 1,1-dioxide]
≤ 1000	≤ 1000	O=C1CN(c2c(O)ccc(-c3cc(C4CC4)n(C4CC4)n3)c2F)S(=O)(=O)N1 [Compound 429, 5-(3-(1,5-dicyclopropyl-1H-pyrazol-3-yl)-2-fluoro-6-hydroxyphenyl)-1,2,5-thiadiazolidin-3-one 1,1-dioxide]
≤ 1000	≤ 1000	O=C1CN(c2c(O)ccc(-c3cnn(C4CCCOC4)c3)c2F)S(=O)(=O)N1 (stereo not drawn) [Compound 351, 5-(2-fluoro-6-hydroxy-3-(1-(tetrahydro-2H-pyran-3-yl)-1H-pyrazol-4-yl)phenyl)-1,2,5-thiadiazolidin-3-one 1,1-dioxide]
≤ 1000	≤ 1000	O=C1CN(c2c(O)ccc(-c3cc(C4CC4)n(C(F)F)n3)c2F)S(=O)(=O)N1 [Compound 518, 5-(3-(5-cyclopropyl-1-(difluoromethyl)-1H-pyrazol-3-yl)-2-fluoro-6-hydroxyphenyl)-1,2,5-thiadiazolidin-3-one 1,1-dioxide]
≤ 1000	≤ 1000	O=C1CN(c2c(O)ccc(-c3cn(Cc4cccc(F)c4)cn3)c2F)S(=O)(=O)N1 [Compound 200, 5-(2-fluoro-3-(1-(3-fluorobenzyl)-1H-imidazol-4-yl)-6-hydroxyphenyl)-1,2,5-thiadiazolidin-3-one 1,1-dioxide]
